This note sets out measurements from patent EP0830890A1, “Surfactants for use in liquid/supercritical CO2” (AIR PRODUCTS AND CHEMICALS, INC., priority 1996, dated 1998).

Holding throughout (format): physicochemical
Data set [1] in a line: Solubility in CO2 by cloud point determination in a variable volume view cell. Also on record: Pressure Describing Cloud Point Determinations For Surfactant/CO2 Concentrations / Pressure Describing Cloud Point Determinations For Surfactant/CO2Concentrations: unit not given here. The protocol:
In the following examples, mixtures of acetylenic alcohols or diols and CO2 were prepared by adding the acetylenic alcohol or diol to a stainless steel variable volume view cell equiped with suitable relief devices, high pressure valves CO2 inlet and outlet and a sapphire window at one end. A high pressure syringe pump (High Pressure Products, HIP pump) was filled with liquid CO2 and used to quantitiatively add CO2 to the pressure vessel. The pressure vessel contained a magnetic stirrer and was stirred via a magnetic couple to a magnet located below the vessel.
A weighed amount of surfactant (0.5-10 weight %) was placed inside the cell chamber in front of the piston. The cell window was attached and 10 cc ? s of CO2, was added to the cell. The surfactant was mixed in the CO2 using a magnetic stirring bar. The cell was mounted in horizontally and then immersed in a water bath. After allowing the high pressure cell to attain thermal equilibrium the pressure within the cell was varied using a floating piston. The pressure was changed to monitor the cloud point as being indicative of insolubility. The operator viewed the floating piston through the sapphire window using a suitable optic device, the onset of insolubility was taken when the translucent solution changed to an orange/brown color due to the Tindall light scattering of the insoluble droplets. The onset of insolubility was checked several times by varying the pressure using the high pressure syringe pump.
A water bath was used to vary the temperature for each concentration. On completing the solubility studies at one concentration and one temperature series, a calibrated injector loop attached to the high pressure cell was filled with the surfactant via a syringe. Utilizing a six way valve to help inject this fixed amount of surfactant, the surfactant concentration within the high pressure cell was increased by a fixed increment. The solubility studies for this new CO2/surfactant concentration were measured at various temperatures in a similar manner to that previously described.

The nature of data set [2]: Interfacial tension of a PEG 600 drop in CO2/surfactant solution via pendant drop technique. As to conditions: PEG (600) drop, 2 weight % Surfynol/CO2 solution. The text has this: Interfacial activity can be monitored using the 'pendant drop' technique, ("Chemistry of Interfaces" M.J.Jaycock & Parfitt, John Wiley and Sons, New York p49-51). This method is utilized to measure the interfacial tension between a pendant drop and a continuous phase that surrounds the drop. When carbon dioxide is used as the continuous media, special high pressure equipment with sapphire view ports is required to maintain a solution of CO2 and surfactant, and to study the change in shape of the pendant drop for interfacial tension calculations. A general procedure for these high pressure phase behavior measurements may be found in Langmuir, vol. 10 1994, pg 3536-3541, by K. Harrison, K. P. Johnston, J. Goveas and E. A. O ? Rear.
Various ethoxylates of 2,4,7,9-tetramethyl-5-decyn-4,7-diol were used in the interfacial tension study. Table 3 gives the interfacial tension observed for ethoxylates of 2,4,7,9-tetramethyl-5-decyn-4,7-diol containing 20, 40, and 65 wt% ethylene oxide. The table also gives the interfacial tension of the polyethyleneglycol (PEG 600)drop within the pure CO2 media. […] It is interesting to note the actual reduction in interfacial tension. For a control PEG 600 drop at 2510 psi the interfacial tension was measured to be 3.39 dyne/cm (run #5in Table 3). […] This corresponds to lowering the interfacial tension by 0.54 dyne/cm, a 16% reduction. A surfactant/CO2 solution of 2 weight % (using the 40 wt% ethoxylated Surfynol surfactant) gave an interfacial tension of 1.57 dyne/cm. at a CO2 pressure of 4030 psi (run #33in Table 3). The corresponding PEG drop at 4093psi used as the control gave an interfacial tension of 1.92dyne/cm (run #18 in Table 3).

Data set [3] can be described thus: Solubility in CO2 by cloud point determination in a variable volume view cell. Also noted: unit not given here. As to conditions: Surfactant Concn. in CO2 0.2486 wt%; 65°C.

With “Ethoxylated 2,4,7,9-Tetramethyl-5-decyn-4,7-diol [AP-465]”, the “Pressure Describing Cloud Point Determinations For Surfactant/CO2Concentrations” value in data set [1] (Surfactant Concn. in CO2 0.2486 wt%, 25°C) was found to be 1440; in data set [1] (Surfactant Concn. in CO2 0.2486 wt%, 35°C) it was 1920; in data set [1] (Surfactant Concn. in CO2 0.2486 wt%, 60°C), 2690; in data set [1] (Surfactant Concn. in CO2 0.8867 wt%, 35°C), 4020; in data set [1] (Surfactant Concn. in CO2 0.8867 wt%, 45°C), 4590; in data set [1] (Surfactant Concn. in CO2 0.8867 wt%, 60°C), 5270. Besides, the “Pressure Describing Cloud Point Determinations For Surfactant/CO2Concentrations” value in data set [1] (Surfactant Concn. in CO2 0.8867 wt%, 65°C) came out at 5470; in data set [3], 2800. Further, the “CO2 solubility (in words)” value in data set [1] (in CO2) is recorded as “poor CO2 solubility”. For the same substance, the “Interfacial Tension IFT” value in data set [2] (3599 psi (248 bar)) turned out to be 1.95 dyne/cm; in data set [2] (3628 psi (250 bar)), 1.99 dyne/cm; in data set [2] (3995 psi (276 bar)) it was 1.73 dyne/cm; in data set [2] (3998 psi (276 bar)), 1.66 dyne/cm; in data set [2] (4505 psi (311 bar)), 1.51 dyne/cm; in data set [2] (4508 psi (311 bar)), 1.57 dyne/cm.
